This assay has as its target T1, EBP (Homo sapiens, UniProt Q15125).
T1 construct: HEK293T cells were utilized as the source of EBP enzyme; endogenous in cells; host or cells: HEK293T
Nature of the assay: EBP Functional Assay (EBP immunoaffinity LC-MS assay). As to conditions: EBP enzyme from HEK293T cells; 30 min with inhibitor, then zymosterol-d5, 37° C., 4 h; percent conversion to dehydrolathosterol-d5 by LC-APCI MRM MS. It counts as biochemical. As for the experimental part: The EBP immunoaffinity (IA) LC-MS assay measures the potency of small molecule inhibitors of EBP by quantifying their concentration-dependent changes in the enzyme's substrate and product using liquid chromatography atmospheric pressure chemical ionization multiple reaction monitoring mass spectrometry (LC-APCI MRM MS). HEK293T cells were utilized as the source of EBP enzyme. The enzyme was incubated with the small molecule inhibitors at variable concentrations for 30 min. Deuterated form of EBP substrate, zymosterol-d5 (Avanti Polar Lipids, Cat #700068P-1 mg), was then added and the plate was incubated at 37° C. for 4 h. Finally, the sterol isomers were extracted and injected to LC-APCI MRM MS. MRM transition used for the quantification for both zymosterol and […] (substrate and product of EBP enzymatic reaction, respectively) is 372.3-203.2, CE 30 and DP 80 in positive ion mode. Percent conversion of the zymosterol-d5 to dehydrolathosterol-d5 was used to derive IC50 curves. Tasin-1 (1′-[(4-Methoxyphenyl)sulfonyl]-4-methyl-1,4′-bipiperidine, CAS 792927-06-1) was used as the reference small molecule inhibitor.
Percent conversion versus the compound concentration data were fit to the following 4-parameter logistic model to generate IC50 curves: […]

T1 sequence (Q15125 whole entry): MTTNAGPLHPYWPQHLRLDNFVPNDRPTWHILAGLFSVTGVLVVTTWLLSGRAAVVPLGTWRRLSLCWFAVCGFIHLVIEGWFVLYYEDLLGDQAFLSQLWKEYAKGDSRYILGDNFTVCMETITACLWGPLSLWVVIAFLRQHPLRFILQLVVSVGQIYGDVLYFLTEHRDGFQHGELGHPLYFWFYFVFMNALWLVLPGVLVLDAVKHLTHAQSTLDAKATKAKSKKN

In turn, “4-((6-((2-methyl-6-(trifluoromethyl)pyridin-3-yl)sulfonyl)-2,6-diazaspiro[3.3]heptan-2-yl)methyl)tetrahydro-2H-pyran-4-ol [Example 75]” displayed an IC50 of 250 to 4000 nM. In turn, `Cc1nc(C(F)(F)F)ccc1S(=O)(=O)N1CC2(CN(C(C)C3CCOC3)C2)C1` (mixture of isomers) [Example 130] came in with an IC50 below 100 nM. In the case of `Cc1nc(C(F)(F)F)ccc1S(=O)(=O)N1CC2(CN(C(C)C3(C)CCCO3)C2)C1` (mixture of isomers) [Example 135], the IC50 was below 100 nM. Molecule `Cc1nc(C(F)(F)F)ccc1S(=O)(=O)N1CC2(CN(C(C)C3CCCO3)C2)C1` (mixture of isomers) [Example 138] returned an IC50 below 100 nM. Take `O=S(=O)(c1ccc(OC(F)F)cc1)N1CCOC2(CCN(C3CCOCC3)C2)C1` (racemic) [Example 2, 9-((4-(Difluoromethoxy)phenyl)sulfonyl)-2-(tetrahydro-2H-pyran-4-yl)-6-oxa-2,9-diazaspiro[4.5]decane]: the IC50 lay within 100 to 250 nM. Next, `O=S(=O)(c1ccc(OC(F)F)cc1)N1CCOC2(CCN(C3CCOC3)CC2)C1` (racemic) [Example 6, 4-((4-(Difluoromethoxy)phenyl)sulfonyl)-9-(tetrahydrofuran-3-yl)-1-oxa-4,9-diazaspiro[5.5]undecane]: 250 to 4000 nM.

As to `O=S(=O)(c1ccc(OC(F)F)cc1)N1CCO[C@@]2(CCN([C@H]3CCCOC3)C2)C1` (racemic) [Example 8, (±)—(R)-9-((4-(Difluoromethoxy)phenyl)sulfonyl)-2-((S)-tetrahydro-2H-pyran-3-yl)-6-oxa-2,9-diazaspiro[4.5]decane], the IC50 fell in the range of 250 to 4000 nM. `O=S(=O)(c1ccc(OC(F)F)cc1)N1CCO[C@@]2(CCN([C@@H]3CCCOC3)C2)C1` (racemic) [Example 9, (±)—(R)-9-((4-(Difluoromethoxy)phenyl)sulfonyl)-2-((R)-tetrahydro-2H-pyran-3-yl)-6-oxa-2,9-diazaspiro[4.5]decane]: the IC50 was 250 to 4000 nM. In turn, `O=S(=O)(c1ccc(OC(F)F)cc1)N1CCOC2(CCN(C3CC4(COC4)C3)C2)C1` (racemic) [Example 25, 9-((4-(Difluoromethoxy)phenyl)sulfonyl)-2-(2-oxaspiro[3.3]heptan-6-yl)-6-oxa-2,9-diazaspiro[4.5]decane] gave an IC50 below 100 nM.

`Cc1nc(C(F)(F)F)ccc1S(=O)(=O)N1CC2(CN(C3CC4(CCO4)C3)C2)C1` (racemic) [Example 69, rac-2-((2-methyl-6-(trifluoromethyl)pyridin-3-yl)sulfonyl)-6-(1-oxaspiro[3.3]heptan-6-yl)-2,6-diazaspiro[3.3]heptane] registered an IC50 of 250 to 4000 nM.

Consider `Cc1cc(C(F)(F)F)nc(C)c1S(=O)(=O)N1CC2(CN(CC3CCOC3)C2)C1` (racemic) [Example 103], for which the IC50 was 100 to 250 nM. `Cc1nc(C(F)(F)F)ccc1S(=O)(=O)N1CC2(CN(C(C)C3CCOCC3)C2)C1` (racemic) [Example 153, rac-2-((2-methyl-6-(trifluoromethyl)pyridin-3-yl)sulfonyl)-6-(1-(tetrahydro-2H-pyran-4-yl)ethyl)-2,6-diazaspiro[3.3]heptane] yielded an IC50 below 100 nM. `Cc1nc(C(F)(F)F)ccc1S(=O)(=O)N1CC2(CN(C(C)C3COC3)C2)C1` (racemic) [Example 155, rac-2-((2-methyl-6-(trifluoromethyl)pyridin-3-yl)sulfonyl)-6-(1-(oxetan-3-yl)ethyl)-2,6-diazaspiro[3.3]heptane] registered an IC50 below 100 nM.

The molecule `Cc1nc(C(F)(F)F)ccc1S(=O)(=O)N1CC2(CN(C(C)C34COC(C)(C3)C4)C2)C1` (racemic) [Example 167, rac-2-(1-(1-methyl-2-oxabicyclo[2.1.1]hexan-4-yl)ethyl)-6-((2-methyl-6-(trifluoromethyl)pyridin-3-yl)sulfonyl)-2,6-diazaspiro[3.3]heptane] registered an IC50 below 100 nM. `Cc1nc(C(F)(F)F)ccc1S(=O)(=O)N1CC2(CN(CC[C@@H]3COC(C)(C)O3)C2)C1` (racemic) [Example 173] displayed an IC50 of 100 to 250 nM. Take `Cc1nc(C(F)(F)F)ccc1S(=O)(=O)N1CC2(CN(C[C@H]3[C@H](C#N)C3(C)C)C2)C1` (racemic) [Example 174]: the IC50 lay within 100 to 250 nM. Regarding `Cc1nc(C(F)(F)F)ccc1S(=O)(=O)N1CC2(CN(C[C@@H]3CC[C@H]4C[C@H]3CO4)C2)C1` (racemic) [Example 175], the IC50 was below 100 nM.

For `Cn1nc(C(F)(F)F)cc1S(=O)(=O)N1CC2(CN(CC3CCOC3)C2)C1` (racemic) [Example 197, rac-2-((1-Methyl-3-(trifluoromethyl)-1H-pyrazol-5-yl)sulfonyl)-6-((tetrahydrofuran-3-yl)methyl)-2,6-diazaspiro[3.3]heptane], the IC50 is below 100 nM. Molecule `Cn1nc(C(F)(F)F)cc1S(=O)(=O)N1CC2(CN(CC3CCOC(C)(C)C3)C2)C1` (racemic) [Example 198, rac-2-((2,2-dimethyltetrahydro-2H-pyran-4-yl)methyl)-6-((1-methyl-3-(trifluoromethyl)-1H-pyrazol-5-yl)sulfonyl)-2,6-diazaspiro[3.3]heptane] showed an IC50 below 100 nM. Molecule `CC(C1CCOCC1)N1CC2(C1)CN(S(=O)(=O)c1cc(C(F)(F)F)nn1C)C2` (racemic) [Example 212, rac-2-((1-methyl-3-(trifluoromethyl)-1H-pyrazol-5-yl)sulfonyl)-6-(1-(tetrahydro-2H-pyran-4-yl)ethyl)-2,6-diazaspiro[3.3]heptane] registered an IC50 below 100 nM. Take `Cn1nc(C(F)(F)F)cc1S(=O)(=O)N1CC2(CN(CC3COCCO3)C2)C1` (racemic) [Example 215, rac-2-((1,4-dioxan-2-yl)methyl)-6-((1-methyl-3-(trifluoromethyl)-1H-pyrazol-5-yl)sulfonyl)-2,6-diazaspiro[3.3]heptane]: the IC50 lay in the range of 250 to 4000 nM. For `Cc1nc(C(F)(F)F)ccc1S(=O)(=O)N1CC2(CN(CC3COCCO3)C2)C1` (racemic) [Example 216, rac-2-((1,4-dioxan-2-yl)methyl)-6-((2-methyl-6-(trifluoromethyl)pyridin-3-yl)sulfonyl)-2,6-diazaspiro[3.3]heptane], the half-maximal inhibitory concentration (IC50) is 250 to 4000 nM. In the case of `O=S(=O)(c1ccc(OC(F)F)cc1)N1CCO[C@]2(CCN(C3CCOCC3)C2)C1` (single isomer, unassigned) [Example 3], the IC50 fell in the range of 100 to 250 nM. As to `O=S(=O)(c1ccc(OC(F)F)cc1)N1CCO[C@@]2(CCN(C3CCOCC3)C2)C1` (single isomer, unassigned) [Example 4], the IC50 is below 100 nM. The figure for `O=S(=O)(c1cc(F)cc(F)c1)N1CCO[C@]2(CCN(C3CCOCC3)C2)C1` (single isomer, unassigned) [Example 14] is below 100 nM; for `O=S(=O)(c1cc(F)cc(F)c1)N1CCO[C@@]2(CCN(C3CCOCC3)C2)C1` (single isomer, unassigned) [Example 15] it is 100 to 250 nM; for `O=S(=O)(c1ccc(OC(F)F)cc1)N1CCO[C@@]2(CCN(C3CC4(COC4)C3)C2)C1` (single isomer, unassigned) [Example 26] it is 100 to 250 nM. The figure for `O=S(=O)(c1ccc(OC(F)F)cc1)N1CCO[C@]2(CCN(C3CC4(COC4)C3)C2)C1` (single isomer, unassigned) [Example 27] is 100 to 250 nM; for `COC1CCC(N2CC3(C2)CN(S(=O)(=O)c2ccc(C(F)F)nc2C2CC2)C3)CC1` (single isomer, unassigned) [Example 117, 2-((2-cyclopropyl-6-(difluoromethyl)pyridin-3-yl)sulfonyl)-6-(4-methoxycyclohexyl)-2,6-diazaspiro[3.3]heptane] it is 250 to 4000 nM. `COC1CCC(N2CC3(C2)CN(S(=O)(=O)c2ccc(C(F)F)nc2C2CC2)C3)CC1` (single isomer, unassigned) [Example 118, 2-((2-cyclopropyl-6-(difluoromethyl)pyridin-3-yl)sulfonyl)-6-(4-methoxycyclohexyl)-2,6-diazaspiro[3.3]heptane] had a 50% inhibitory concentration (IC50) of 100 to 250 nM. Next, `CC1(O)CCC(N2CC3(C2)CN(S(=O)(=O)c2cnc(C(F)(F)F)cc2C2CC2)C3)CC1` (single isomer, unassigned) [Example 123, 4-(6-((4-cyclopropyl-6-(trifluoromethyl)pyridin-3-yl)sulfonyl)-2,6-diazaspiro[3.3]heptan-2-yl)-1-methylcyclohexan-1-ol]: 100 to 250 nM; `CC1(O)CCC(N2CC3(C2)CN(S(=O)(=O)c2cnc(C(F)(F)F)cc2C2CC2)C3)CC1` (single isomer, unassigned) [Example 124, 4-(6-((4-cyclopropyl-6-(trifluoromethyl)pyridin-3-yl)sulfonyl)-2,6-diazaspiro[3.3]heptan-2-yl)-1-methylcyclohexan-1-ol]: 100 to 250 nM; `CCc1cc(C(F)(F)F)ncc1S(=O)(=O)N1CC2(CN(C3CCC(C)(O)CC3)C2)C1` (single isomer, unassigned) [Example 127, 4-(6-((4-ethyl-6-(trifluoromethyl)pyridin-3-yl)sulfonyl)-2,6-diazaspiro[3.3]heptan-2-yl)-1-methylcyclohexan-1-ol]: below 100 nM.

For the origin of these results see patent publication US20250171463A1 (BIOGEN MA INC., priority 2022, published 2025).
